{
  "source": "patent US8431593B2",
  "about": "“Heteroaryl amide derivatives” (H. Lundbeck A/S, priority 2006, dated 2013)",
  "data": [
    {"target": "T1, P2X7 receptor (Homo sapiens, UniProt Q99572)", "T1 construct": "host or cells: SH-SY5Y", "T1 sequence (Q99572 1-595)": "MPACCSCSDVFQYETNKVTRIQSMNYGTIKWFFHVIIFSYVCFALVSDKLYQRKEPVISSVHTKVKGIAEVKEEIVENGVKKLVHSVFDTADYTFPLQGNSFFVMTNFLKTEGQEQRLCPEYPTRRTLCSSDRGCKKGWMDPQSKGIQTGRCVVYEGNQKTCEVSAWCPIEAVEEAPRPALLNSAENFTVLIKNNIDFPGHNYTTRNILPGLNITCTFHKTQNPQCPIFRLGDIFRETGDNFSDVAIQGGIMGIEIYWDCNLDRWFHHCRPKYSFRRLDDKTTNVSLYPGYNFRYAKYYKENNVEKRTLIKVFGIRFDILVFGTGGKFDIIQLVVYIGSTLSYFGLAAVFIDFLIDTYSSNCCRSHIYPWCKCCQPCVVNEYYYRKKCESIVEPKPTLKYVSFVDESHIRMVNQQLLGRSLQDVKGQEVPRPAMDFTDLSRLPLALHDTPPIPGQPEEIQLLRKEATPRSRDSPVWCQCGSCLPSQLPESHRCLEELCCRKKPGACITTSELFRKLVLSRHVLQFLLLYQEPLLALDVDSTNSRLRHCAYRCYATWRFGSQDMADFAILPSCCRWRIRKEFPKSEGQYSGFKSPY", "test": "P2X7 calcium mobilization assay, high throughput, antagonist activity (Example 4A)", "type": "cell-based", "conditions": "not given", "method_in_brief": "(§1)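 Cells plated 100,000/well the day before; after 1 h dye loading and one rinse, cells were preincubated 1 h at room temperature with test compound. Calcium mobilization then read on FLIPR^TETRA; maximum RFU corrected by subtracting mean no-agonist response and referenced to mean agonist-control maximum.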", "units": {"IC50": "µM"}, "values": [
      {"smiles": "O=C(NCC12CC3CC(CC(C3)C1)C2)c1cccc2nc(CN3CCN(CCO)CC3)cn12", "note": "[Compound 13, N-(adamantan-1-ylmethyl)-2-{[4-(2-hydroxyethyl)piperazin-1-yl]methyl}imi-dazo[1,2-a]pyridine-5-carboxamide]", "IC50": "< 2"},
      {"smiles": "O=C(NCC12CC3CC(CC(C3)C1)C2)c1cccc2nc(CCO)cn12", "note": "[Compound 6, N-(adamantan-1-ylmethyl)-2-(2-hydroxyethyl)imi-dazo[1,2-a]pyridine-5-carboxamide]", "IC50": "< 2"}
    ]},
    {"target": "T1, P2X7 receptor", "test": "P2X7 calcium mobilization assay, high throughput, antagonist activity (Example 4A)", "type": "cell-based", "conditions": "50% decrease in the fluorescence response of cells exposed to 80 μM 2′(3′)-O-(4-benzoyl-benzoyl)adenosine 5′-triphosphate; Example 4A; read-out: IC50", "method_in_brief": "as §1", "units": {"IC50": "µM"}, "values": [
      {"smiles": "C[C@@H]1CNCCN1C(=O)Cc1cn2c(C(=O)NC[C@@H]3CC[C@@H]4C[C@H]3C4(C)C)cccc2n1", "note": "[Compound 561, N-{[(1R,2R,5R)-6,6-dimethylbicyclo[3.1.1]hept-2-yl]methyl}-2-{2-[(2R)-2-methylpiperazin-1-yl]-2-oxoethyl}imidazo[1,2-a]pyridine-5-carboxamide]", "IC50": "< 2"},
      {"smiles": "Cc1cc(-c2cn3c(C(=O)NCC(CC(C)C)c4cccnc4)cccc3n2)n[nH]1", "note": "(centres unmarked) [Compound 595, 2-(5-methyl-1H-pyrazol-3-yl)-N-(4-methyl-2-pyridin-3-ylpentyl)imidazo[1,2-a]pyridine-5-carboxamide]", "IC50": "< 2"}
    ]},
    {"target": "T1, P2X7 receptor", "test": "P2X7 calcium mobilization assay, high throughput, antagonist activity (Example 4A)", "type": "cell-based", "conditions": "50% decrease in the fluorescence response of cells exposed to 80 μM of 2′(3′)-O-(4-benzoyl-benzoyl)adenosine 5′-triphosphate; Example 4A; read-out: IC50", "method_in_brief": "as §1", "units": {"IC50": "µM"}, "values": [
      {"smiles": "O=C(N[C@@H]1CN2CCC1CC2)c1cn2c(C(=O)NCC34CC5CC(CC(C5)C3)C4)cccc2n1", "note": "[Compound 662, 5-N-(adamantan-1-ylmethyl)-2-N-[(3S)-1-azabicyclo[2.2.2]oct-3-yl]imidazo[1,2-a]pyridine-2,5-dicarboxamide]", "IC50": "< 2"},
      {"smiles": "CC(C)(Cc1cn2c(C(=O)NCC34CC5CC(CC(C5)C3)C4)cccc2n1)C(=O)O", "note": "[Compound 731, 3-{5-[(adamantan-1-ylmethyl)carbamoyl]imidazo[1,2-a]pyridin-2-yl}-2,2-dimethylpropanoic acid]", "IC50": "< 2"},
      {"smiles": "CN1CCCC(CNC(=O)c2cn3c(C(=O)NCC45CC6CC(CC(C6)C4)C5)cccc3n2)C1", "note": "(centres unmarked) [Compound 668, 5-N-(adamantan-1-ylmethyl)-2-N-[(1-methylpiperidin-3-yl)methyl]imidazo[1,2-a]pyridine-2,5-dicarboxamide]", "IC50": "< 2"},
      {"smiles": "CC1CCCCN1C1CCN(C(=O)c2cn3c(C(=O)NCC45CC6CC(CC(C6)C4)C5)cccc3n2)CC1", "note": "(centres unmarked) [Compound 699, N-(adamantan-1-ylmethyl)-2-[(2-methyl-1,4′-bipiperidin-1′-yl)carbonyl]imidazo[1,2-a]pyridine-5-carboxamide]", "IC50": "< 2"}
    ]},
    {"target": "T1, P2X7 receptor", "test": "P2X7 calcium mobilization assay, high throughput, antagonist activity (Example 4A)", "type": "cell-based", "conditions": "50% decrease in the fluorescence response of cells exposed to 80 μM of 2′(3′)-O-(4-benzoyl-benzoyl)adenosine 5′-triphosphate; determined as in Example 4A; read-out: IC50", "method_in_brief": "as §1", "units": {"IC50": "µM"}, "values": [
      {"smiles": "CCCC(CNC(=O)c1cccc2nc(CC(Cc3ccccc3)C(=O)O)cn12)c1ccc(Cl)cc1", "note": "(centres unmarked) [Compound 1006, 2-benzyl-3-(5-{[2-(4-chlorophenyl)pentyl]carbamoyl}imidazo[1,2-a]pyridin-2-yl) propanoic acid]", "IC50": "< 2"},
      {"smiles": "CCOC(=O)Cc1nnnn1Cc1cn2c(C(=O)NCC34CC5CC(CC(C5)C3)C4)cccc2n1", "note": "[Compound 902, ethyl [1-({5-[(adamantan-1-ylmethyl)carbamoyl]imidazo[1,2-a]pyridin-2-yl}methyl)-1H-tetrazol-5-yl]acetate]", "IC50": "< 2"},
      {"smiles": "CCOC(=O)C(Cc1ccc(Cl)cc1)c1cn2c(C(=O)NCC(CC(C)C)c3ccc(Cl)cc3)cccc2n1", "note": "(centres unmarked) [Compound 932, ethyl 3-(4-chlorophenyl)-2-(5-{[2-(4-chlorophenyl)-4-methylpentyl]carbamoyl}imidazo [1,2-a]pyridin-2-yl)propanoate]", "IC50": "< 2"},
      {"smiles": "CCC(C)NC(=O)Cc1cn2c(C(=O)NCC3(c4ccc(C(F)(F)F)cc4)CCCCC3)cccc2n1", "note": "(centres unmarked) [Compound 868, 2-[2-(sec-butylamino)-2-oxoethyl]-N-({1-[4-(trifluoromethyl)phenyl]cyclohexyl}methyl) imidazo[1,2-a] pyridine-5-carboxamide]", "IC50": "< 2"}
    ]},
    {"target": "T1, P2X7 receptor", "test": "P2X7 calcium mobilization assay, high throughput, antagonist activity (Example 4A)", "type": "cell-based", "conditions": "SH-SY5Y cells; 50% decrease in fluorescence response to 80 μM BzATP; read-out: IC50", "method_in_brief": "as §1", "units": {"IC50": "µM"}, "values": [
      {"smiles": "O=C(NCC12CC3CC(CC(C3)C1)C2)c1cccc2nc(CC(=O)N3CCCC(O)C3)cn12", "note": "(centres unmarked) [Compound 53, N-(adamantan-1-ylmethyl)-2-[2-(3-hydroxypiperidin-1-yl)-2-oxoethyl]imidazo[1,2-a]pyridine-5-carboxamide]", "IC50": "< 2"},
      {"smiles": "O=C(NCC12CC3CC(CC(C3)C1)C2)c1cccc2nc(CCN3C(=O)c4ccccc4C3=O)cn12", "note": "[Compound 137, N-(adamantan-1-ylmethyl)-2-[2-(1,3-dioxo-1,3-dihydro-2H-isoindol-2-yl)ethyl]imidazo[1,2-a]pyridine-5-carboxamide]", "IC50": "< 2"},
      {"smiles": "CC(c1cn2c(C(=O)NCC34CC5CC(CC(C5)C3)C4)cccc2n1)N1CC[C@@H](N)C1", "note": "(stereo partly drawn) [Compound 205, N-(adamantan-1-ylmethyl)-2-{1-[(3R)-3-aminopyrrolidin-1-yl]ethyl}imidazo[1,2-a]pyridine-5-carboxamide]", "IC50": "< 2"},
      {"smiles": "N[C@H]1CCN(C(=O)Cc2cn3c(C(=O)NCC45CC6CC(CC(C6)C4)C5)cccc3n2)C1", "note": "(stereo in doubt) [Compound 144, N-(adamantan-1-ylmethyl)-2-[2-(3-aminopyrrolidin-1-yl)-2-oxoethyl]imidazo[1,2-a]pyridine-5-carboxamide]", "IC50": "< 2"},
      {"smiles": "O=C(NCC12CC3CC(CC(C3)C1)C2)c1cccc2nc(CN3CCC(O)C3)cn12", "note": "(centres unmarked) [Compound 134, N-(adamantan-1-ylmethyl)-2-[(3-hydroxypyrrolidin-1-yl)methyl]imidazo[1,2-a]pyridine-5-carboxamide]", "IC50": "< 2"}
    ]},
    {"target": "T1, P2X7 receptor", "test": "P2X7 calcium mobilization assay, high throughput, antagonist activity (Example 4A)", "type": "cell-based", "conditions": "fluorescence response of cells exposed to 80 μM 2′(3′)-O-(4-benzoyl-benzoyl)adenosine 5′-triphosphate; Example 4A; read-out: IC50", "method_in_brief": "as §1", "units": {"IC50": "µM"}, "values": [
      {"smiles": "CCC(COC)NC(=O)Cc1cn2c(C(=O)NCC(CC(C)C)c3ccccc3)cccc2n1", "note": "(centres unmarked) [Compound 231, 2-(2-{[1-(methoxymethyl)propyl]amino}-2-oxoethyl)-N-(4-methyl-2-phenylpentyl) imidazo [1,2-a]pyridine-5-carboxamide]", "IC50": "< 2"},
      {"smiles": "CCN(C)C(=O)c1cn2c(NC(=O)CC34CC5CC(CC(C5)C3)C4)cccc2n1", "note": "[Compound 369, 5-[(adamantan-1-ylacetyl)amino]-N-ethyl-N-methylimidazo[1,2-a]pyridine-2-carboxamide]", "IC50": "< 2"},
      {"smiles": "O=C(CC12CC3CC(CC(C3)C1)C2)Nc1cccc2nc(C(=O)N3CCCC3)cn12", "note": "[Compound 358, 2-adamantan-1-yl-N-[2-(pyrrolidin-1-ylcarbonyl)imidazo [1,2-a]pyridin-5-yl]acetamide]", "IC50": "< 2"},
      {"smiles": "CC(C)C(=O)NC1CCN(C(=O)c2cn3c(NC(=O)CC45CC6CC(CC(C6)C4)C5)cccc3n2)CC1", "note": "[Compound 402, N-[1-({5-[(adamantan-1-ylacetyl)amino]imidazo[1,2-a]pyridin-2-yl}carbonyl)piperidin-4-yl]-2-methylpropanamide]", "IC50": "< 2"},
      {"smiles": "CC1(C)[C@H]2CC[C@@H](CNC(=O)c3cccc4nc(C(=O)N5CCCC5CN)cn34)[C@@H]1C2", "note": "(stereo partly drawn) [Compound 324, 2-{[2-(aminomethyl)pyrrolidin-1-yl]carbonyl}-N-{[(1S,2R,5S)-6,6-dimethylbicyclo[3.1.1]hept-2-yl]methyl}imidazo[1,2-a]pyridine-5-carboxamide]", "IC50": "< 2"},
      {"smiles": "O=C(CC12CC3CC(CC(C3)C1)C2)Nc1cccc2nc(C(=O)N(CCO)C3CCCCC3)cn12", "note": "[Compound 407, 5-[(adamantan-1-ylacetyl)amino]-N-cyclohexyl-N-(2-hydroxyethyl)imidazo [1,2-a]pyridine-2-carboxamide]", "IC50": "< 2"},
      {"smiles": "CC(C)CC(CNC(=O)c1cccc2nc(CC(=O)NCC(F)(F)F)cn12)c1ccccc1", "note": "(centres unmarked) [Compound 229, N-(4-methyl-2-phenylpentyl)-2-{2-oxo-2-[(2,2,2-trifluoroethyl)amino]ethyl}imidazo[1,2-a]pyridine-5-carboxamide]", "IC50": "< 2"},
      {"smiles": "C[C@@H]1COC[C@H](C)N1Cc1cn2c(C(=O)NCC34CC5CC(CC(C5)C3)C4)cccc2n1", "note": "(relative stereo) [Compound 343, rel-N-(adamantan-l-ylmethy)-2-{[(3R, 5S)-3,5-dimethylmorpholin-4-yl]methyl}imidazo[1,2-a]pyridine-5-carboxamide]", "IC50": "< 2"},
      {"smiles": "Cc1c(C(=O)O)ncn1Cc1cn2c(C(=O)NCC34CC5CC(CC(C5)C3)C4)cccc2n1", "note": "[Compound 279, 1-({5-[(adamantan-1-ylmethyl)carbamoyl]imidazo[1,2-a]pyridin-2-yl}methyl)-5-methyl-1H-imidazole-4-carboxylic acid]", "IC50": "< 2"},
      {"smiles": "CC(C)CC(CNC(=O)c1cccc2nc(C(=O)N3CCCC3)cn12)c1ccccc1", "note": "(centres unmarked) [Compound 260, N-(4-methyl-2-phenylpentyl)-2-(pyrrolidin-1-ylcarbonyl)imidazo [1,2-a]pyridine-5-carboxamide]", "IC50": "< 2"},
      {"smiles": "O=C(CC12CC3CC(CC(C3)C1)C2)Nc1cccc2nc(C(=O)N3CCCCC3)cn12", "note": "[Compound 357, 2-adamantan-1-yl-N-[2-(piperidin-1-ylcarbonyl)imidazo [1,2-a]pyridin-5-yl]acetamide]", "IC50": "< 2"},
      {"smiles": "COCC1CCN(C(=O)c2cn3c(NC(=O)CC45CC6CC(CC(C6)C4)C5)cccc3n2)CC1", "note": "[Compound 396, 2-adamantan-1-yl-N-(2-{[4-(methoxymethyl)piperidin-1-yl]carbonyl}imidazo[1,2-a]pyridin-5-yl)acetamide]", "IC50": "< 2"}
    ]}
  ]
}
